According to patent publication US8017386B2, “Divinyl ether synthase gene and protein, and uses thereof” (priority 2000, dated 2011):

How the values were obtained:
[1] = molecular target: T1, CYP74D1 (Solanum lycopersicum, UniProt Q9FPM6)
T1 sequence (Q9FPM6 10-478 limits assumed): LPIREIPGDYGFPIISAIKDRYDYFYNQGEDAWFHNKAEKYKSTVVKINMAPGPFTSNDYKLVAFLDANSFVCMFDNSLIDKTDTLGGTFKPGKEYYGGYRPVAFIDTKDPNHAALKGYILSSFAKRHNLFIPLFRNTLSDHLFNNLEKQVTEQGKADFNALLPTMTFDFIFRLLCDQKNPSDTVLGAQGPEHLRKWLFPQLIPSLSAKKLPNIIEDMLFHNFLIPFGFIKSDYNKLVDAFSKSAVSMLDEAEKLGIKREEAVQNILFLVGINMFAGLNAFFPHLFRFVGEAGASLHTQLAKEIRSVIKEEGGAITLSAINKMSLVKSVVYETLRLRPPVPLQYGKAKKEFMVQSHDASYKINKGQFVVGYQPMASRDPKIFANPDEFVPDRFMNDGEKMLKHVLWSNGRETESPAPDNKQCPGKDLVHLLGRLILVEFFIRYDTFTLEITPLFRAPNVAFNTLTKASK

[2] = molecular target: T2, CYP74D1 (Solanum lycopersicum, UniProt Q9FPM6); assay: Kinetic assays with affinity purified CYP74D-6H (decrease in A234); conditions: for estimated turnover rate (kcat): purified CYP74D-6H, assuming the total protein content to be active; for Km: read-out: apparent Km, recombinant DES (summary in description)
T2 sequence (Q9FPM6 whole entry): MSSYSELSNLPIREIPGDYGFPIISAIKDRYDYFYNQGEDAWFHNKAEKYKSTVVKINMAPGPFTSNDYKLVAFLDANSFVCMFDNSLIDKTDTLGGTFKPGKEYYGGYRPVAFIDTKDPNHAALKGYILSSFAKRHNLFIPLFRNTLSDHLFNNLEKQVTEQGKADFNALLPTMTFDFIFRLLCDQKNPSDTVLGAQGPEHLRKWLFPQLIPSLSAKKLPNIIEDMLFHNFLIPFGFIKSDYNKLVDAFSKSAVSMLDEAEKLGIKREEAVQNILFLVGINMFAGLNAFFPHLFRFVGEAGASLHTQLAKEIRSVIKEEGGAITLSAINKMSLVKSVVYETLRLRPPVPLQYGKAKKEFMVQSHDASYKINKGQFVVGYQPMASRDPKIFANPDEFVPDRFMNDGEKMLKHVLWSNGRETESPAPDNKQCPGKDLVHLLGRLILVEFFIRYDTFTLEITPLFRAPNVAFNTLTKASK

[3] = molecular target: T2, CYP74D1; remark: listed apart in the source

SMILES	metabolism by extracts containing 6H-CYP74D (in words) [1]	estimated turnover rate (kcat) [2] [s⁻¹]	Km [2] [µM]	metabolized at % of the rate observed for 9-HPOD [3] [%]
CCCCC[C@@H](/C=C/C=C\CCCCCCCC(=O)O)OO [13-HPOD, 13(S)-hydroperoxy-9(Z),11(E)-octadecadienoic acid]	poor substrates	–	–	–
CC/C=C\C/C=C\C=C\[C@H](CCCCCCCC(=O)O)OO [9-HPOT, 9(S)-hydroperoxy-10(E),12(Z),15(Z)-octadecatrienoic acid]	efficiently metabolized	500	~48	–
CCCCC/C=C\C=C\[C@H](CCCCCCCC(=O)O)OO [9-HPOD, 9(S)-hydroperoxy-10(E),12(Z)-octadecadienoic acid]	efficiently metabolized	890	~67	–
CC/C=C\C[C@@H](/C=C/C=C\CCCCCCCC(=O)O)OO [13-HPOT, 13(S)-hydroperoxy-9(Z),11(E),15(Z)-octadecatrienoic acid]	poor substrates	–	–	< 5
